Source: the NIST ThermoML archive (doi:10.1021/je1012235)
Numbers after ± are expanded uncertainties.

Conditions: 101.33 kPa, Liquid; for mass density: Vibrating tube method

CCCCCCCC/C=C\CCCCCCCCCC(=O)OC [methyl cis-11-eicosenoate]
Conditions	mass density [kg/m3]	viscosity [mPa·s]
278.15 K	884.8 ± 1.2	14.34 ± 0.22
283.15 K	881.1 ± 1.2	11.97 ± 0.19
288.15 K	877.5 ± 1.2	10.13 ± 0.16
293.15 K	873.8 ± 1.2	8.667 ± 0.14
298.15 K	870.2 ± 1.2	7.488 ± 0.12
303.15 K	866.6 ± 1.2	6.528 ± 0.1
308.15 K	863 ± 1	5.738 ± 0.09
313.15 K	859.5 ± 1.2	5.08 ± 0.08
318.15 K	855.9 ± 1.2	4.529 ± 0.072
323.15 K	852.3 ± 1.2	4.062 ± 0.065
328.15 K	848.8 ± 1.2	3.665 ± 0.059
333.15 K	845.2 ± 1.2	3.323 ± 0.054
338.15 K	841.7 ± 1.2	3.028 ± 0.049
343.15 K	838.2 ± 1.2	2.771 ± 0.045
348.15 K	834.6 ± 1.2	2.546 ± 0.042
353.15 K	831.1 ± 1.2	2.348 ± 0.039
358.15 K	827.6 ± 1.2	2.174 ± 0.036
363.15 K	824.1 ± 1.2	2.019 ± 0.034
368.15 K	820.7 ± 1.2	1.881 ± 0.032
373.15 K	817.3 ± 1.2	1.758 ± 0.03

CCCCCCCCCCCCCCCCCCCC(=O)OCC [ethyl eicosanoate]
Conditions	mass density [kg/m3]	viscosity [mPa·s]
318.15 K	841.2 ± 1.2	5.657 ± 0.089
323.15 K	837.7 ± 1.2	4.973 ± 0.079
328.15 K	834.1 ± 1.2	4.507 ± 0.072
333.15 K	830.5 ± 1.2	4.058 ± 0.065
338.15 K	827 ± 1.2	3.671 ± 0.059
343.15 K	823.5 ± 1.2	3.337 ± 0.054
348.15 K	820 ± 1.2	3.046 ± 0.049
353.15 K	816.6 ± 1.2	2.78 ± 0.045
358.15 K	813.2 ± 1.2	2.569 ± 0.042
363.15 K	809.7 ± 1.2	2.372 ± 0.039
368.15 K	806.1 ± 1.2	2.196 ± 0.037
373.15 K	802.4 ± 1.2	2.039 ± 0.034

CCCCCC/C=C\CCCCCCCC(=O)OC [methyl (Z)-9-hexadecenoate]
Conditions	mass density [kg/m3]	viscosity [mPa·s]
278.15 K	880.4 ± 1	6.169 ± 0.081
283.15 K	876.6 ± 1	5.367 ± 0.071
288.15 K	872.8 ± 1	4.662 ± 0.062
293.15 K	869 ± 1	4.107 ± 0.055
298.15 K	865.2 ± 1	3.647 ± 0.049
303.15 K	861.4 ± 1	3.289 ± 0.045
308.15 K	857.6 ± 1	2.943 ± 0.041
313.15 K	853.8 ± 1	2.616 ± 0.037
318.15 K	850 ± 1	2.422 ± 0.034
323.15 K	846.3 ± 1	2.175 ± 0.031
328.15 K	842.5 ± 1	2.03 ± 0.029
333.15 K	838.7 ± 1	1.87 ± 0.027
338.15 K	834.9 ± 1	1.728 ± 0.026
343.15 K	831.1 ± 1	1.595 ± 0.024
348.15 K	827.3 ± 1	1.482 ± 0.023
353.15 K	823.5 ± 1	1.366 ± 0.021
358.15 K	819.8 ± 1	1.29 ± 0.02
363.15 K	816 ± 1	1.207 ± 0.019

CCCCCCCCCCCCCCCCCCCCCCCC(=O)OC [methyl tetracosanoate]
Conditions	mass density [kg/m3]	viscosity [mPa·s]
338.15 K	830.5 ± 1	5.139 ± 0.068
343.15 K	827.1 ± 1	4.628 ± 0.062
348.15 K	823.7 ± 1	4.189 ± 0.056
353.15 K	820.3 ± 1	3.81 ± 0.051
358.15 K	816.9 ± 1	3.48 ± 0.047
363.15 K	813.5 ± 1	3.19 ± 0.044
368.15 K	810.1 ± 1	2.933 ± 0.041
373.15 K	806.8 ± 1	2.707 ± 0.038

CCCCC/C=C\C/C=C\CCCCCCCC(=O)OCC [ethyl linoleate]
Conditions	mass density [kg/m3]	viscosity [mPa·s]
278.15 K	893.8 ± 1	8.188 ± 0.11
283.15 K	890 ± 1	7.084 ± 0.092
288.15 K	886.3 ± 1	6.165 ± 0.081
293.15 K	882.6 ± 1	5.423 ± 0.072
298.15 K	878.8 ± 1	4.807 ± 0.064
303.15 K	875.2 ± 1	4.307 ± 0.058
308.15 K	871.5 ± 1	3.854 ± 0.052
313.15 K	867.8 ± 1	3.406 ± 0.046
318.15 K	864.2 ± 1	3.161 ± 0.043
323.15 K	860.6 ± 1	2.829 ± 0.039
328.15 K	856.9 ± 1	2.641 ± 0.037
333.15 K	853.3 ± 1	2.429 ± 0.034
338.15 K	849.7 ± 1	2.241 ± 0.032
343.15 K	846 ± 1	2.075 ± 0.03
348.15 K	842.4 ± 1	1.927 ± 0.028
353.15 K	838.8 ± 1	1.773 ± 0.026
358.15 K	835.2 ± 1	1.676 ± 0.025
363.15 K	831.6 ± 1	1.569 ± 0.024
